Source: patent US20120184548A1, “CARBOXYLIC ACID ARYL AMIDES” (priority 2011, published 2012)

How the values were obtained:
[1] = target: T1, Human DYRK1B (Homo sapiens, UniProt Q9Y463); assay: DYRK1B Kinase TR-FRET (IMAP-Tb) Assay; type: biochemical; conditions: for IC50: TR-FRET, ATP 70 μM, 37° C. for 60 minutes, averages of multiple runs, read-out: Enzyme IC50 DYRK1B
T1 construct: purchased Invitrogen PR8350B (former PV4649)
From the text: The kinase TR-FRET (IMAP-Tb) assay uses a fluorescence labeled substrate peptide in the kinase reaction. Upon phosphorylation by the kinase, phosphopeptide is produced, which will be detected by the binding solution provided in IMAP TR-FRET binding kit. After the completion of the kinase reaction, the reaction will be stopped by adding the binding solution containing terbium tracer. This tracer is immobilized on the surface of the IMAP beads, which also contain metal ions on the beads that bind to the phospho-groups of the products. Thus the phosphorylated product of the reaction can enter into close proximity to the tracer, producing resonance energy transfer. Due to the long lifetime of terbium (Tb) fluorescence the detection can be run in time resolved mode, which virtually eliminates fluorescence interference from assay components or compounds. […] IC50 is the amount of test compound that inhibits 50% of the activity of DYRK1B in this assay. […] 1. Human DYRK1B: from Invitrogen. Part # PR8350B (former PV4649) 2. Substrate Peptide: RRRFRPASPLRGPPK 3. IMAP TR-FRET IPP Explorer Kit: from Molecular Devices. Part # R8157 4. Kinase Assay Buffer (KAB): 10 mM HEPES pH 7.0, 50 mM NaCl, 5 mM MgCl2, 1 mM DTT, 1 mM NaVO4, 200 μg/mL BSA (0.02%) 5. Assay Plate: Remp polypropylene clear 384-well microplate. Cat#23490-102 6. Detection Plate: Costa black 384-well microplate. Cat #3710 Assay Procedure: This assay was performed as follows: 1. Transfer 1.5 μL of 20× compound solution to each well of an assay plate. 2. Add to each well 22.5 μL of KAB Buffer. 3. Add to each well 3 μL of the solution of DYRK1B and ATP. […] Add to each well 3 μL of the substrate peptide. […] Incubate the assay plates at 37° C. for 60 minutes. 6. Add 18 μL of Detection Solution (1:800 diluted Progress bead stock, 1:400 diluted Tb stock, 80% Buffer A, and 20% Buffer B) into each well of detection plates. 7. Transfer 6 μL of assay solution from the assay plate to the detection plate. 8. Shake detection plates for 30 minutes. 9. Read plates in Envision with wavelength set at excitation 340 nm for Tb, emission 490 nm, and […]. 10. Calculation: TR-FRET Signal=(Reading at […])×2000000

[2] = target: T2, Human DYRK1A (Homo sapiens, UniProt Q13627); assay: DYRK1A Kinase TR-FRET (IMAP-Tb) Assay; type: biochemical; conditions: for IC50: TR-FRET, ATP 70 μM, 37° C. for 60 minutes, averages of multiple runs, read-out: Enzyme IC50 DYRK1A; for inhibition at 10 µM: 10 μM test compound, reported where IC50 was not determined, read-out: Enzyme DYRK1A % inhibition at 10 μM test compound concentration
T2 construct: purchased Invitrogen PV3997
From the text: The kinase TR-FRET (IMAP-Tb) assay uses a fluorescence labeled substrate peptide in the kinase reaction. Upon phosphorylation by the kinase, phosphopeptide is produced, which will be detected by the binding solution provided in IMAP TR-FRET binding kit. After the completion of the kinase reaction, the reaction will be stopped by adding the binding solution containing terbium tracer. This tracer is immobilized on the surface of the IMAP beads, which also contain metal ions on the beads that bind to the phospho-groups of the products. Thus the phosphorylated product of the reaction can enter into close proximity to the tracer, producing resonance energy transfer. Due to the long lifetime of terbium (Tb) fluorescence the detection can be run in time resolved mode, which virtually eliminates fluorescence interference from assay components or compounds.
The TR-FRET signal measurement from this assay, given as an IC50 measurement, is a measure of a test compound's ability to interfere with the phosphorylation of the peptide substrate, that is it inhibits the phosphorylation of the substrate peptide by DYRK1A, and is thus a measure of the test compound's ability to inhibit the activity of DYRK1A.
1. Human DYRK1A: from Invitrogen. Part # PV3997
2. Substrate Peptide: […]
3. IMAP TR-FRET IPP Explorer Kit: from Molecular Devices. Part # R8157 4. Kinase Assay Buffer (KAB): 10 mM HEPES pH 7.0, 50 mM NaCl, 5 mM MgCl2, 1 mM DTT, 1 mM NaVO4, 200 μg/mL BSA (0.02%) 5. Assay Plate: Remp polypropylene clear 384-well microplate. […] Detection Plate: Costa black 384-well microplate. […] Transfer 1.5 μL of 20× compound solution to each well of an assay plate. 2. Add to each well 22.5 μL of KAB Buffer. 3. Add to each well 3 μL of the solution of DYRK1A and ATP. […] Add to each well 3 μL of the substrate peptide. The assay concentration is 1.0 μM 5. Incubate the assay plates at 37° C. for 60 minutes. 6. Add 18 μL of Detection Solution (1:800 diluted Progress bead stock, 1:400 diluted Tb stock, 80% Buffer A, and 20% Buffer B) into each well of detection plates. 7. Transfer 6 μL of assay solution from the assay plate to the detection plate. 8. Shake detection plates for 30 minutes. 9. Read plates in Envision with wavelength set at excitation 340 nm for Tb, emission 490 nm, and […].

[3] = tested on: SW620 human colon cancer cells; assay: SW620 Cell Viability Assay (CellTiter-Glo); type: cell-based; conditions: SW-620, 96 h, 4 days incubation, read-out: Cellular EC50 SW620
Procedure: 1. Cell Plate Preparation: SW620 human colon cancer cells (known to express DYRK1B), obtained from ATCC, were seeded into 96-well plates at […] in 50 μL of media. • Harvested the required number of cells (counts & viability determined by Guava Viacount). • Centrifuge cells to pellet and removed supernant. • Resuspended in growth media (50 μL/well) & pipetted thoroughly to break up clumps. • Setup for ˜100 wells/plate, therefore, VT=5 mL/plate @ 1.2×10^5 cells/mL. 1A. Some cells (S-) were allowed to attach for 24 hrs, serum starved for 48 hrs, and then followed with treatments of test compound.
Test Compound solution was prepared in regular corresponding media supplemented with serum
2. Test Compound Preparation: Test compounds were solubilized in either DMSO or media and prepared at various stock concentrations. • All compounds were incubated at 37° C. for 30 minutes and vortexed. • (5 mM stocks of test compound were prepared for non-soluble drugs)
3. Test Compound Plate Preparation:
• The 10 mM test compound stock was diluted to a concentration of 100× the final Cmax concentration. • Then the test compound stock is diluted 50-fold in media and/or second test compound for a final Cmax concentration in the test compound plate. • The Cmax in the test compound plate (2% DMSO) is 2-fold higher than the final Cmax in the cell plate (60 uL titrations were 1:3). 4. Viability Assay: This assay was performed as follows: • Transfer 50 μL of test compound solution per well from the test compound plate onto the cell plate prepared in Step #1. • Mix the plate with treated cells by pipetting up and down three times with 200 μL multi-channel pipet. • Incubate the cells in 5% CO2 incubator @ 37° C. for 4 days. • Run the CellTiter-Glo™ Luminescent Cell Viability Assay. The results of this assay, given as EC50 values, indicate the concentration of test compound that inhibits tumor cell proliferation by 50%.

T1 sequence (Q9Y463 whole entry): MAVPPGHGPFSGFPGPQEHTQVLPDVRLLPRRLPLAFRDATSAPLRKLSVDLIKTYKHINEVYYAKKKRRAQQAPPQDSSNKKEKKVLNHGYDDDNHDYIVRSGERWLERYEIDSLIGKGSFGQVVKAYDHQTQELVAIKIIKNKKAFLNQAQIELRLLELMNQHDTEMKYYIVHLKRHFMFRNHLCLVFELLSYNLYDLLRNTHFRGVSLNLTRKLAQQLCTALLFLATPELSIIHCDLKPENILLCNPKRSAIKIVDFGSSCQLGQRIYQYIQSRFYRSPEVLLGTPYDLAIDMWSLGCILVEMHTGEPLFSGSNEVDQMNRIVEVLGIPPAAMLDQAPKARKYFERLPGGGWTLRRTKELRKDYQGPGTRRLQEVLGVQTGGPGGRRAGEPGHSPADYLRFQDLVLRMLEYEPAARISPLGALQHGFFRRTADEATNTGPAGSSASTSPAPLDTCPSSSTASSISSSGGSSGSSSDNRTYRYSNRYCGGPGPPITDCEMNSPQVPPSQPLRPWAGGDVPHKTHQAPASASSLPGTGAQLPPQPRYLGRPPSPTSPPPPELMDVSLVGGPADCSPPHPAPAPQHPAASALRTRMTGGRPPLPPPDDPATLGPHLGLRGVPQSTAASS

| Structure (SMILES) | IC50 [1] [nM] | IC50 [2] [nM] | EC50 [3] [nM] | inhibition at 10 µM ([1]; 10 μM test compound, reported where IC50 was not determined, read-out: Enzyme DYRK1B % inhibition at 10 μM test compound concentration) [%] | inhibition at 10 µM [2] [%] |
| --- | --- | --- | --- | --- | --- |
| COCCOc1cc2cc(C(=O)Nc3cc(C(=O)N[C@H](CCN)c4ccccc4)ccc3C)c(=O)[nH]c2cc1OC (single isomer, unassigned) [Example 58] | 29 | 9 | 4040 |  |  |
| COc1cc2cc(C(=O)Nc3cc(C(=O)NC(CCN)c4ccccc4)ccc3C)c(=O)[nH]c2cc1OC (stereo in doubt) [Example 47, 6,7-Dimethoxy-2-oxo-1,2-dihydro-quinoline-3-carboxylic acid [5-((R)-3-amino-1-phenyl-propylcarbamoyl)-2-methyl-phenyl]-amide] | 14 | 85.5 | > 3000 |  |  |
| COC(=O)c1ccc(C)c(NC(=O)c2cc3cc(OC)c(OC)cc3[nH]c2=O)c1 [Example 17, 3-[(6,7-Dimethoxy-2-oxo-1,2-dihydro-quinoline-3-carbonyl)-amino]-4-methyl-benzoic acid methyl ester] | 560 |  | > 10000 |  |  |
| COC(=O)c1ccc(Cl)c(NC(=O)c2cc3cc(OC)c(OC)cc3[nH]c2=O)c1 [Example 19, 4-Chloro-3-[(6,7-dimethoxy-2-oxo-1,2-dihydro-quinoline-3-carbonyl)-amino]-benzoic acid methyl ester] |  |  | > 10000 | 47 | 44 |
| COCCOc1cc2cc(C(=O)Nc3cc(C(=O)OC)ccc3C)c(=O)[nH]c2cc1OC [Example 23, 3-{[7-Methoxy-6-(2-methoxy-ethoxy)-2-oxo-1,2-dihydro-quinoline-3-carbonyl]-amino}-4-methyl-benzoic acid methyl ester] | 440 | 262 | > 10000 |  |  |
| COc1cc2cc(C(=O)Nc3cc(C(=O)NC(CN)c4ccccc4)ccc3C)c(=O)[nH]c2cc1OC (stereo not drawn) [Example 31, 6,7-Dimethoxy-2-oxo-1,2-dihydro-quinoline-3-carboxylic acid [5-(2-amino-1-phenyl-ethylcarbamoyl)-2-methyl-phenyl]-amide] | 141 |  | 1920 |  |  |
| COc1cc2cc(C(=O)Nc3cc(C(=O)NC(CCN)c4ccccc4)ccc3C)c(=O)[nH]c2cc1OC (stereo not drawn) [Example 35, 6,7-Dimethoxy-2-oxo-1,2-dihydro-quinoline-3-carboxylic acid [5-(3-amino-1-phenyl-propylcarbamoyl)-2-methyl-phenyl]-amide] | 59.5 | 154 | 2050 |  |  |
| COCCOc1cc2cc(C(=O)Nc3cc(C(=O)NC(CN)c4ccccc4)ccc3C)c(=O)[nH]c2cc1OC (stereo not drawn) [Example 37, 7-Methoxy-6-(2-methoxy-ethoxy)-2-oxo-1,2-dihydro-quinoline-3-carboxylic acid [5-(2-amino-1-phenyl-ethylcarbamoyl)-2-methyl-phenyl]-amide] | 32.5 | 19.1 | 1820 |  |  |
| COc1cc2cc(C(=O)Nc3cc(C(=O)NC(CN)c4cccc(Cl)c4)ccc3C)c(=O)[nH]c2cc1OC (stereo not drawn) [Example 50, 6,7-Dimethoxy-2-oxo-1,2-dihydro-quinoline-3-carboxylic acid {5-[2-amino-1-(3-chloro-phenyl)-ethylcarbamoyl]-2-methyl-phenyl}-amide] | 73.2 |  | 1130 |  |  |
| COc1cc2[nH]c(=O)c(C(=O)Nc3cc(C(=O)NCc4cccc(Cl)c4)ccc3C)cc2cc1O [Example 68, 6-Hydroxy-7-methoxy-2-oxo-1,2-dihydro-quinoline-3-carboxylic acid [5-(3-chloro-benzylcarbamoyl)-2-methyl-phenyl]-amide] | 189 | 58 |  |  |  |
| COCCOCCOc1cc2cc(C(=O)Nc3cc(C(=O)NCc4cccc(Cl)c4)ccc3C)c(=O)[nH]c2cc1OC [Example 70, 7-Methoxy-6-[2-(2-methoxy-ethoxy)-ethoxy]-2-oxo-1,2-dihydro-quinoline-3-carboxylic acid [5-(3-chloro-benzylcarbamoyl)-2-methyl-phenyl]-amide] | 1690 | 67 |  |  |  |
| COC(=O)c1ccc(Cl)c(NC(=O)C2Cc3cc(OC)c(OC)cc3NC2=O)c1 (stereo not drawn) [Example 71, 4-Chloro-3-[(6,7-dimethoxy-2-oxo-1,2,3,4-tetrahydro-quinoline-3-carbonyl)-amino]-benzoic acid methyl ester] | 860 | 690 |  |  |  |
| COC(=O)c1ccc(C)c(NC(=O)C2Cc3cc(OC)c(OC)cc3NC2=O)c1 (stereo not drawn) [Example 72, 3-[(6,7-Dimethoxy-2-oxo-1,2,3,4-tetrahydro-quinoline-3-carbonyl)-amino]-4-methyl-benzoic acid methyl ester] | 1800 | 5590 |  |  |  |
| COc1cc2c(cc1OC)NC(=O)C(C(=O)Nc1cc(C(=O)NCc3ccccc3)ccc1Cl)C2 (stereo not drawn) [Example 73, 6,7-Dimethoxy-2-oxo-1,2,3,4-tetrahydro-quinoline-3-carboxylic acid (5-benzylcarbamoyl-2-chloro-phenyl)-amide] | 2340 | 880 |  |  |  |
| COc1cc2c(cc1OC)NC(=O)C(C(=O)Nc1cc(C(=O)NCc3ccccc3)ccc1C)C2 (stereo not drawn) [Example 74, 6,7-Dimethoxy-2-oxo-1,2,3,4-tetrahydro-quinoline-3-carboxylic acid (5-benzylcarbamoyl-2-methyl-phenyl)-amide] | > 10000 |  |  |  | 30 |
